{"source": "paper PMC4117758", "about": "(2014)", "key": {"[1]": {"tested_on": "ssDNA1 (DNA, single strand) GAGCTCTCGAAAGAGCTCCGATTA", "test": "UV-vis absorption", "settings": "150 mM KCl; 10 mM Tris-HCl pH 7.4, 1 mM Na2EDTA, 400 ml/l PEG 200; 20 μM DNA"}, "[2]": {"tested_on": "Hum63 (DNA, G4) GGGTTAGGGTTAGGGTTAGGGTTAGGGTTAGGGTTAGGGTTAGGGTTAGGGTTAGGGTTAGGG", "test": "UV-vis absorption titration, Scatchard", "settings": "150 mM KCl; 10 mM Tris-HCl pH 7.4, 1 mM Na2EDTA, 400 ml/l PEG 200; 3 μM compound; n = 0.52"}, "[3]": {"tested_on": "Oxy28 (DNA, G4) GGGGTTTTGGGGTTTTGGGGTTTGGGG", "test": "UV-vis absorption", "settings": "150 mM KCl; 10 mM Tris-HCl pH 7.4, 1 mM Na2EDTA, 400 ml/l PEG 200; DNA up to 10:1 over compound"}, "[4]": {"tested_on": "Hum57-M2 (DNA, G4) GGGTTAGGGTTAGGGTTAGGGTTGAGTGTAGGGTTAGGGTTAGGGTTAGGGTGTGAG", "test": "UV-vis absorption titration, Scatchard", "settings": "150 mM KCl; 10 mM Tris-HCl pH 7.4, 1 mM Na2EDTA, 400 ml/l PEG 200; 3 μM compound; n = 0.47"}, "[5]": {"tested_on": "M3Q (DNA, G4) GAGGGAGGGAGGGAGAGGGA", "test": "UV-vis absorption", "settings": "150 mM KCl; 10 mM Tris-HCl pH 7.4, 1 mM Na2EDTA, 400 ml/l PEG 200; DNA up to 10:1 over compound"}, "[6]": {"tested_on": "AT (DNA, duplex) ATATATATATAT", "test": "UV-vis absorption", "settings": "150 mM KCl; 10 mM Tris-HCl pH 7.4, 1 mM Na2EDTA, 400 ml/l PEG 200; 20 μM DNA"}, "[7]": {"tested_on": "Hum63-M1 (DNA, G4) GGGTTAGGGTTAGGGTTAGGGTTAGGGTTAGGGTTAGGGTTAGGGTGTGAGTGTGAGTGTGAG", "test": "UV-vis absorption titration, Scatchard", "settings": "150 mM KCl; 10 mM Tris-HCl pH 7.4, 1 mM Na2EDTA, 400 ml/l PEG 200; 3 μM compound; n = 0.46"}, "[8]": {"tested_on": "Hum57-M1 (DNA, G4) GGGTTAGGGTTAGGGTTAGGGTTAGGGTTAGGGTTAGGGTTAGGGTGTGAGTGTGAG", "test": "UV-vis absorption titration, Scatchard", "settings": "150 mM KCl; 10 mM Tris-HCl pH 7.4, 1 mM Na2EDTA, 400 ml/l PEG 200; 3 μM compound; n = 0.48"}, "[9]": {"tested_on": "Hum57 (DNA, G4) GGGTTAGGGTTAGGGTTAGGGTTAGGGTTAGGGTTAGGGTTAGGGTTAGGGTTAGGG", "test": "UV melting at 295 nm", "settings": "50 mM KCl; 10 mM Tris-HCl pH 7.4, 1 mM Na2EDTA, no PEG; 5 μM compound, 5 μM DNA; derived from two Tm"}, "[10]": {"tested_on": "KRAS (DNA, G4) AGGGCGGTGGGAAGAGGGAAGAGGGGGAGG", "test": "UV-vis absorption", "settings": "150 mM KCl; 10 mM Tris-HCl pH 7.4, 1 mM Na2EDTA, 400 ml/l PEG 200; DNA up to 10:1 over compound"}, "[11]": {"tested_on": "Hum57-M3 (DNA, G4) GGGTTAGGGTTAGGGTTAGGGTTGAGTGTGAGTGTAGGGTTAGGGTTAGGGTTAGGG", "test": "UV-vis absorption titration, Scatchard", "settings": "150 mM KCl; 10 mM Tris-HCl pH 7.4, 1 mM Na2EDTA, 400 ml/l PEG 200; 3 μM compound; n = 0.50"}, "[12]": {"tested_on": "Hum51 (DNA, G4) GGGTTAGGGTTAGGGTTAGGGTTAGGGTTAGGGTTAGGGTTAGGGTTAGGG", "test": "UV-vis absorption titration, Scatchard", "settings": "150 mM KCl; 10 mM Tris-HCl pH 7.4, 1 mM Na2EDTA, 400 ml/l PEG 200; 3 μM compound; n = 0.50"}, "[13]": {"tested_on": "Hum51-M2 (DNA, G4) GGGTTAGGGTTAGGGTTAGGGTTGAGTGTAGGGTTAGGGTTAGGGTTAGGG", "test": "UV-vis absorption titration, Scatchard", "settings": "150 mM KCl; 10 mM Tris-HCl pH 7.4, 1 mM Na2EDTA, 400 ml/l PEG 200; 3 μM compound; n = 0.46"}, "[14]": {"tested_on": "Hum63 (DNA, G4) GGGTTAGGGTTAGGGTTAGGGTTAGGGTTAGGGTTAGGGTTAGGGTTAGGGTTAGGGTTAGGG", "test": "UV melting at 295 nm", "settings": "50 mM KCl; 10 mM Tris-HCl pH 7.4, 1 mM Na2EDTA, no PEG; 5 μM compound, 5 μM DNA; derived from two Tm"}, "[15]": {"tested_on": "Hum69 (DNA, G4) GGGTTAGGGTTAGGGTTAGGGTTAGGGTTAGGGTTAGGGTTAGGGTTAGGGTTAGGGTTAGGGTTAGGG", "test": "UV melting at 295 nm", "settings": "50 mM KCl; 10 mM Tris-HCl pH 7.4, 1 mM Na2EDTA, no PEG; 5 μM compound, 5 μM DNA; derived from two Tm"}, "[16]": {"tested_on": "Hum21 (DNA, G4) GGGTTAGGGTTAGGGTTAGGG", "test": "UV melting at 295 nm", "settings": "50 mM KCl; 10 mM Tris-HCl pH 7.4, 1 mM Na2EDTA, no PEG; 5 μM compound, 5 μM DNA; derived from two Tm"}, "[17]": {"tested_on": "Hum51-M1 (DNA, G4) GGGTTAGGGTTAGGGTTAGGGTTAGGGTTAGGGTTAGGGTTAGGGTGTGAG", "test": "UV-vis absorption titration, Scatchard", "settings": "150 mM KCl; 10 mM Tris-HCl pH 7.4, 1 mM Na2EDTA, 400 ml/l PEG 200; 3 μM compound; n = 0.45"}, "[18]": {"tested_on": "GC (DNA, duplex) GCGCGCGCGCGC", "test": "UV-vis absorption", "settings": "150 mM KCl; 10 mM Tris-HCl pH 7.4, 1 mM Na2EDTA, 400 ml/l PEG 200; 20 μM DNA"}, "[19]": {"tested_on": "Hum69 (DNA, G4) GGGTTAGGGTTAGGGTTAGGGTTAGGGTTAGGGTTAGGGTTAGGGTTAGGGTTAGGGTTAGGGTTAGGG", "test": "UV-vis absorption titration, Scatchard", "settings": "150 mM KCl; 10 mM Tris-HCl pH 7.4, 1 mM Na2EDTA, 400 ml/l PEG 200; 3 μM compound; n = 0.52"}, "[20]": {"tested_on": "Hum21 (DNA, G4) GGGTTAGGGTTAGGGTTAGGG", "test": "UV-vis absorption titration, Scatchard", "settings": "150 mM KCl; 10 mM Tris-HCl pH 7.4, 1 mM Na2EDTA, 400 ml/l PEG 200; 3 μM compound; Ka undetected"}, "[21]": {"tested_on": "Hum45 (DNA, G4) GGGTTAGGGTTAGGGTTAGGGTTAGGGTTAGGGTTAGGGTTAGGG", "test": "UV melting at 295 nm", "settings": "50 mM KCl; 10 mM Tris-HCl pH 7.4, 1 mM Na2EDTA, no PEG; 5 μM compound, 5 μM DNA; derived from two Tm"}, "[22]": {"tested_on": "Hum45 (DNA, G4) GGGTTAGGGTTAGGGTTAGGGTTAGGGTTAGGGTTAGGGTTAGGG", "test": "UV-vis absorption titration, Scatchard", "settings": "150 mM KCl; 10 mM Tris-HCl pH 7.4, 1 mM Na2EDTA, 400 ml/l PEG 200; 3 μM compound; n = 0.46"}, "[23]": {"tested_on": "Hum51 (DNA, G4) GGGTTAGGGTTAGGGTTAGGGTTAGGGTTAGGGTTAGGGTTAGGGTTAGGG", "test": "UV melting at 295 nm", "settings": "50 mM KCl; 10 mM Tris-HCl pH 7.4, 1 mM Na2EDTA, no PEG; 5 μM compound, 5 μM DNA; derived from two Tm"}, "[24]": {"tested_on": "LD (DNA, duplex) GCGCAATTGCGC", "test": "UV-vis absorption", "settings": "150 mM KCl; 10 mM Tris-HCl pH 7.4, 1 mM Na2EDTA, 400 ml/l PEG 200; 20 μM DNA"}, "[25]": {"tested_on": "Hum63-M2 (DNA, G4) GGGTTAGGGTTAGGGTTAGGGTTGAGTGTAGGGTTAGGGTTAGGGTTAGGGTGTGAGTGTGAG", "test": "UV-vis absorption titration, Scatchard", "settings": "150 mM KCl; 10 mM Tris-HCl pH 7.4, 1 mM Na2EDTA, 400 ml/l PEG 200; 3 μM compound; n = 0.50"}, "[26]": {"tested_on": "ssDNA2 (DNA, single strand) TAGAGCACACCTGTCCGTG", "test": "UV-vis absorption", "settings": "150 mM KCl; 10 mM Tris-HCl pH 7.4, 1 mM Na2EDTA, 400 ml/l PEG 200; 20 μM DNA"}, "[27]": {"tested_on": "Hum63-M3 (DNA, G4) GGGTTAGGGTTAGGGTTAGGGTTGAGTGTGAGTGTAGGGTTAGGGTTAGGGTTAGGGTGTGAG", "test": "UV-vis absorption titration, Scatchard", "settings": "150 mM KCl; 10 mM Tris-HCl pH 7.4, 1 mM Na2EDTA, 400 ml/l PEG 200; 3 μM compound; n = 0.50"}, "[28]": {"tested_on": "Hum57 (DNA, G4) GGGTTAGGGTTAGGGTTAGGGTTAGGGTTAGGGTTAGGGTTAGGGTTAGGGTTAGGG", "test": "UV-vis absorption titration, Scatchard", "settings": "150 mM KCl; 10 mM Tris-HCl pH 7.4, 1 mM Na2EDTA, 400 ml/l PEG 200; 3 μM compound; n = 0.48"}, "[29]": {"tested_on": "C-MYC (DNA, G4) TGAGGGTGGGAGGGTGGGAA", "test": "UV-vis absorption", "settings": "150 mM KCl; 10 mM Tris-HCl pH 7.4, 1 mM Na2EDTA, 400 ml/l PEG 200; DNA up to 10:1 over compound"}}}
{"molecule": "C[N+]1(CCOc2cccc(-c3c4nc(c(-c5cccc(OCC[N+]6(C)CCCCC6)c5)c5ccc([nH]5)c(-c5cccc(OCC[N+]6(C)CCCCC6)c5)c5nc(c(-c6cccc(OCC[N+]7(C)CCCCC7)c6)c6ccc3[nH]6)C=C5)C=C4)c2)CCCCC1", "values": [{"measurement": "binding", "setting": "[1]", "result": "no"}, {"measurement": "Ka", "setting": "[2]", "result": "2.53e+06", "unit": "M⁻¹"}, {"measurement": "binding", "setting": "[3]", "result": "no"}, {"measurement": "Ka", "setting": "[4]", "result": "1.38e+06", "unit": "M⁻¹"}, {"measurement": "binding", "setting": "[5]", "result": "no"}, {"measurement": "binding", "setting": "[6]", "result": "no"}, {"measurement": "Ka", "setting": "[7]", "result": "2.08e+06", "unit": "M⁻¹"}, {"measurement": "Ka", "setting": "[8]", "result": "1.3e+06", "unit": "M⁻¹"}, {"measurement": "melting temperature shift (ΔTm)", "setting": "[9]", "result": 9.2, "unit": "°C"}, {"measurement": "binding", "setting": "[10]", "result": "no"}, {"measurement": "Ka", "setting": "[11]", "result": "1.08e+06", "unit": "M⁻¹"}, {"measurement": "Ka", "setting": "[12]", "result": "1.66e+06", "unit": "M⁻¹"}, {"measurement": "Ka", "setting": "[13]", "result": "1.1e+06", "unit": "M⁻¹"}, {"measurement": "melting temperature shift (ΔTm)", "setting": "[14]", "result": 8.9, "unit": "°C"}, {"measurement": "melting temperature shift (ΔTm)", "setting": "[15]", "result": 6.6, "unit": "°C"}, {"measurement": "melting temperature shift (ΔTm)", "setting": "[16]", "result": 0.4, "unit": "°C"}, {"measurement": "Ka", "setting": "[17]", "result": "1.09e+06", "unit": "M⁻¹"}, {"measurement": "binding", "setting": "[18]", "result": "no"}, {"measurement": "Ka", "setting": "[19]", "result": "2.05e+06", "unit": "M⁻¹"}, {"measurement": "binding", "setting": "[20]", "result": "no"}, {"measurement": "melting temperature shift (ΔTm)", "setting": "[21]", "result": 9.1, "unit": "°C"}, {"measurement": "Ka", "setting": "[22]", "result": "1.11e+06", "unit": "M⁻¹"}, {"measurement": "melting temperature shift (ΔT1/2)", "setting": "[23]", "result": 8.0, "unit": "°C"}, {"measurement": "binding", "setting": "[24]", "result": "no"}, {"measurement": "Ka", "setting": "[25]", "result": "1.1e+06", "unit": "M⁻¹"}, {"measurement": "binding", "setting": "[26]", "result": "no"}, {"measurement": "Ka", "setting": "[27]", "result": "1.08e+06", "unit": "M⁻¹"}, {"measurement": "Ka", "setting": "[28]", "result": "1.05e+06", "unit": "M⁻¹"}, {"measurement": "binding", "setting": "[29]", "result": "no"}]}
